US6545131B1, “Tissue specific prodrug” (priority 1997, dated 2003)
Starred links: 1 amine or outer side, 2 acyl side, 3 side chain; linkers in the order of their positions; H or OH if unused. Residues, ends and D or L forms follow the SMILES beside them. *: point of attachment. Mu = morpholinocarbonyl, O=C(N1CCOCC1)*; AMC = Cc1cc(=O)oc2cc(N*)ccc12; Morpholide = C1CN(*)CCO1; CO = O=C([*:1])[*:2]; Dox = doxorubicin

Tests used:
[1] = cited from earlier work
[2] = target: T1, endoplasmic reticulum Ca2+-ATPase (SERCA), SR vesicles from rabbit skeletal muscle (Oryctolagus cuniculus, UniProt P04191); test: SERCA inhibition: 45Ca2+ uptake to sarcoplasmic reticulum vesicles; type: biochemical; details: mean (n=3) ± standard error; 5 μg/ml SR protein, free Ca2+ 100 nM, 4 min uptake; read-out: IC50 (50% inhibition of 45Ca2+ uptake to SR vesicles)
T1 construct: sarcoplasmic reticulum (SR) vesicles prepared from rabbit skeletal muscle; from tissue; host or cells: rabbit skeletal muscle sarcoplasmic reticulum vesicles
T1 sequence (P04191 1-994 isoform P04191-2): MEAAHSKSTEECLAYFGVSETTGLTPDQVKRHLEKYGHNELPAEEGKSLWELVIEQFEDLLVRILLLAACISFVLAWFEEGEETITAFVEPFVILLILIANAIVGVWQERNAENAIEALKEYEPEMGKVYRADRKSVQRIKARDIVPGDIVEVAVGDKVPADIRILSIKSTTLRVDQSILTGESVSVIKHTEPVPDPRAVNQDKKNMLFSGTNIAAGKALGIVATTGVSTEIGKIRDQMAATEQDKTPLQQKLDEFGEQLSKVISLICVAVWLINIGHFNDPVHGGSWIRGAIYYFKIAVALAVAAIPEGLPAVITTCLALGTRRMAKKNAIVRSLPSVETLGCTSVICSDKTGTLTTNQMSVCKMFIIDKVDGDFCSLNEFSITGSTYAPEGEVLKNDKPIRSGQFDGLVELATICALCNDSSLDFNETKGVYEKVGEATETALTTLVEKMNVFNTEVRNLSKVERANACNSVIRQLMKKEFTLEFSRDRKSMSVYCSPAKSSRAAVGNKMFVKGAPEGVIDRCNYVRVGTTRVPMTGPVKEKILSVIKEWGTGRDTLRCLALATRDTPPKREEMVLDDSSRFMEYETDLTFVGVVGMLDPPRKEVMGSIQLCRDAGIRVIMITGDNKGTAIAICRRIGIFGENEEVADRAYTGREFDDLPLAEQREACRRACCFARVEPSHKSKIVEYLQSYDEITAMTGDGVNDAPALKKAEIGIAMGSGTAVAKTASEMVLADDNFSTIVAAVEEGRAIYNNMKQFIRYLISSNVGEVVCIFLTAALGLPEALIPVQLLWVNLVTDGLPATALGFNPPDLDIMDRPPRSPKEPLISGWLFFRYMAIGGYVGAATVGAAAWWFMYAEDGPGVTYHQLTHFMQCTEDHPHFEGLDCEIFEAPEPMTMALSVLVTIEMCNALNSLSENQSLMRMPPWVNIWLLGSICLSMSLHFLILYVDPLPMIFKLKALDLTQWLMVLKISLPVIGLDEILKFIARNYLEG
Experimental: The primary amine-containing thapsigargin analogs of the invention have endoplasmic reticulum Ca^2+-ATPase inhibitory activity. This activity is measured as the concentration of analog needed to inhibit 50% of this ATPase (IC50). The IC50 of the analogs of the invention is desirably at most 500 nM, preferably at most 200 nM, and more preferably at most 50 nM of analog.
The inhibitory potency of thapsigargin and its analogs was determined as the concentration required to produce 50% inhibition (i.e. IC50) of ^45Ca^2+ uptake to sarcoplasmic reticulum (SR) vesicles prepared from rabbit skeletal muscle by the method of De Meis and Hasselbach (J. Biol. Chem., 246: 4759-4763, 1971). The ^45Ca^2+ uptake assay was as described previously (Christensen, et al., FEBS, 335: 345-348, 1993), with the following modifications: 5 μg/ml of SR protein was incubated at 25EC and free Ca^2+ adjusted to 100 nM using 4 min. uptake time. Under these conditions, Ca^2+ could proceed linearly with time for at least 8 minutes. Measurements of Ca^2+ within TSU cells was determined as described previously (Lin et al., The Prostate, 33:201-207, 1997).
The IC50 results are mean (n=3)±standard error. The LC50 results are mean (n=5)±standard error. The entry “ND” stands for “not determined”. Clonogenic survival not determined above 10 μM for dBTG. Analogs with −boc have a t-butoxycarbonyl (boc) protected amino group.

[3] = Clonogenic survival of TSU-Pr1 cells after 72 hours exposure to TG analogs; type: cell-based, human; details: human; TSU-Pr1, 72 hours exposure; mean (n=5) ± standard error; read-out: LC50 (concentration needed to kill 50% of clonogenic cells)
In short: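 Androgen-independent human prostate cancer TSU-Pr1 cells (2×10^5) were exposed for 72 h to varying thapsigargin analog concentrations, and clonogenic survival was then assessed. LC50 is the concentration killing 50% of clonogenic cells, reported as mean of n=5 ± SE.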

[4] = Cytotoxic activity (LD50) of thapsigargin and debutanoyl derivative; type: cell-based
Experimental: The starting material for all the synthesized analogs is 8-O-debutanoylthapsigargin, which is easily available by triethylamine catalyzed methanolysis of thapsigargin. Removal of the butanoyl results in loss of cytotoxic activity with an LD50 of >50 μM compared to <100 nM for thapsigargin. Anhydrides of dicarboxylic acids of various lengths afforded analogs in which the acyl group attached to the O-8 ended in a free carboxylic acid. A dicyclohexylcarbodiimide (DCCI) promoted coupling of a 2,4-diaminoarene to the carboxylic acid analogs affords the derivatives in which contain a primary aromatic amine as a potential coupling point for additional moeities.

[5] = target: sarcoplasmic reticulum (SR) and endoplasmic reticulum (ER) Ca2+-ATPase (SERCA) pump; details: read-out: apparent dissociation constant; cited from earlier work
Cathepsin C = target: T2, Cathepsin C (Homo sapiens, UniProt P53634); test: PSA substrate cleavage by purified intracellular protease; type: biochemical; details: 0.2 mM substrate, pH 7.8; SKLQ, KLQ, LQ in 1.4% acetonitrile/buffer, Q-AMC in 0.2% formic acid/buffer
T2 construct: purchased Sigma Chemical Co
T2 sequence (P53634 25-463): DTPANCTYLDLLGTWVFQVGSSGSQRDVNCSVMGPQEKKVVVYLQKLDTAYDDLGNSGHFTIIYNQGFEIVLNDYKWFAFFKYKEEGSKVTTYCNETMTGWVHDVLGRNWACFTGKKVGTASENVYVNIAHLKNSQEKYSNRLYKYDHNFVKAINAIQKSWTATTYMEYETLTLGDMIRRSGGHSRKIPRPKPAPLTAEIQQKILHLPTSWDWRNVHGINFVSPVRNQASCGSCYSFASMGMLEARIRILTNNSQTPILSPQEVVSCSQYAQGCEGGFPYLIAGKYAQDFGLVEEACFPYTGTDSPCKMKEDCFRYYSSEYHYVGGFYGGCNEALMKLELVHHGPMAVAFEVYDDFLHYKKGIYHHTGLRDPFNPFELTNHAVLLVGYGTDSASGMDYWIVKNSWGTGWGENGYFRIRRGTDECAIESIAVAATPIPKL
Experimental: (§1) Cleavage was studied by measuring fluorescence change secondary to AMC release. Fluorescence detection was carried out with a Fluoroskan II 96 well fluorometric plate reader (ICN Biomedicals, Costa Mesa, Calif.), with excitation wavelength 355 nm and emission wavelength 460 nm. Data were collected and analyzed using Deltasoft III software (Biometallics, Princeton, N.J.). All reactions were performed at room temperature by the addition of substrate and proteases into PSA buffer, described below, in a final volume of 200 μL. The results were determined from the initial linear increase of fluorescence and were expressed as the picomoles of AMC released per minute based upon comparison to a standard curve of the fluorescence of known amounts of AMC (i.e., fluorescence was linear form 20 to 300 picomoles of AMC). The data were analyzed by Lineweaver-Burke reciprocal plots to determine the Michaelis-Menten constant (i.e., Km) expressed as the amount of substrate needed to saturate half of the enzyme and the catalytic rate constant (i.e., kcat) expressed as the amount of substrate converted to product per time per amount of enzyme.
(§2) A family of peptide substrates based upon the EHSSKLQ (SEQ ID NO:10) sequence was assayed for activity for the intracellular proteases, and the results given in Table 4.
(§3) The amino acid sequences expressed in one letter amino acid code represent the following amino acid sequences in the three letter amino acid code: EHSSKLQ (Glu-His-Ser-Ser-Lys-Leu-Gln; SEQ ID NO:10), The shorter sequences are formed by deleting amino acids from the amino terminal side of the sequence. Determinations listed in the table were carried out with substrates at 0.2 mM concentration in the PSA assay buffer (50 mM Tris/0.1M NaCl pH 7.8), except SKLQ (SEQ ID NO:1), KLQ and LQ, which were carried out in 1.4% acetonitrile/buffer and Q-AMC which was carried out in 0.2% formic acid/buffer, at pH 7.8. The entry “UD” stands for “undetectable” and means that at most, 0.1 pmole of substrate cleavage per minute per 200 pmole protease took place. Asterisks represent experiments not performed. Abbreviations are as follows: PSA (prostate specific antigen), Cath B, C, D (Cathepsins, B, C, D), Esterase (porcine liver esterase).

Cathepsin B = target: T3, Cathepsin B (Homo sapiens, UniProt P07858); test: as above; type: biochemical; details: 0.2 mM substrate, pH 7.8; SKLQ, KLQ, LQ in 1.4% acetonitrile/buffer, Q-AMC in 0.2% formic acid/buffer
T3 construct: purchased Sigma Chemical Co
Experimental: as §1, §2, §3

Cathepsin D = target: T4, Cathepsin D (Homo sapiens, UniProt P07339); test: as above; type: biochemical; details: 0.2 mM substrate, pH 7.8; SKLQ, KLQ, LQ in 1.4% acetonitrile/buffer, Q-AMC in 0.2% formic acid/buffer
T4 construct: purchased Sigma Chemical Co
T4 sequence (P07339 65-412): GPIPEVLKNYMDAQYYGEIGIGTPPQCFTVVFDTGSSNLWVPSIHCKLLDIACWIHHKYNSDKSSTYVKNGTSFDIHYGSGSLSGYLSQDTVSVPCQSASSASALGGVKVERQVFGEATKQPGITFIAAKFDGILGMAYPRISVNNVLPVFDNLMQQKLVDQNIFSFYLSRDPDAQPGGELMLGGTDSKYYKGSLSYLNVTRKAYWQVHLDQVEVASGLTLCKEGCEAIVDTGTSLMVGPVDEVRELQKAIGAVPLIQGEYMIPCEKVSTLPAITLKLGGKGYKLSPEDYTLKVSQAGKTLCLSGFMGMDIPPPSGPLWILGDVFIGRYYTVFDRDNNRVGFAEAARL
Experimental: as §1, §2, §3

porcine liver esterase = test: as above; type: biochemical; details: 0.2 mM substrate, pH 7.8; SKLQ, KLQ, LQ in 1.4% acetonitrile/buffer, Q-AMC in 0.2% formic acid/buffer
Experimental: as §1, §2, §3

[6] = Stability of PSA substrates in serum (AMC release); type: in vitro ADME; details: 0.2 mM substrate
urokinase = target: T5, urokinase (Homo sapiens, UniProt P00749); test: Peptide-AMC cleavage by purified extracellular protease; type: biochemical; details: 0.2 mM substrate, PSA assay buffer pH 7.8
T5 construct: purchased Calbiochem

[7] = target: T6, tissue plasminogen activator (TPA) (Homo sapiens, UniProt P00750); test: as above; type: biochemical; details: 0.2 mM substrate, PSA assay buffer pH 7.8
T6 construct: purchased Calbiochem
T6 sequence (P00750 36-562, species assumed): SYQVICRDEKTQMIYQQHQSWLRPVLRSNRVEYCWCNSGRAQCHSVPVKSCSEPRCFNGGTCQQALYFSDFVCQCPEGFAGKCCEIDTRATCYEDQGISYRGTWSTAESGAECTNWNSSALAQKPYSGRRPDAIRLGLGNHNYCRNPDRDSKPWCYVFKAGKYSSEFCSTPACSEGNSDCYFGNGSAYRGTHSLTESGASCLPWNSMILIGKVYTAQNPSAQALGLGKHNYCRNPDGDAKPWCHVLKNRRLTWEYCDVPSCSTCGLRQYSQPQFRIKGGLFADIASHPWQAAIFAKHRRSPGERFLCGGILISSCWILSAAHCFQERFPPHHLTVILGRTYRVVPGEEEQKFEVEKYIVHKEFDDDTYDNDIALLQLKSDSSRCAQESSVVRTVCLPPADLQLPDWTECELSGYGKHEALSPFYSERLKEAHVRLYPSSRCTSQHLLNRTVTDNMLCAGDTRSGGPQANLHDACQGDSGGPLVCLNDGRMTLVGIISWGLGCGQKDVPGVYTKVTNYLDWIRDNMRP

Trypsin = test: as above; type: biochemical; details: 0.2 mM substrate, PSA assay buffer pH 7.8
Plasmin = target: T7, Plasmin (Homo sapiens, UniProt P00747); test: as above; type: biochemical; details: 0.2 mM substrate, PSA assay buffer pH 7.8
T7 construct: purchased Calbiochem
T7 sequence (P00747 581-810 limits assumed, species assumed): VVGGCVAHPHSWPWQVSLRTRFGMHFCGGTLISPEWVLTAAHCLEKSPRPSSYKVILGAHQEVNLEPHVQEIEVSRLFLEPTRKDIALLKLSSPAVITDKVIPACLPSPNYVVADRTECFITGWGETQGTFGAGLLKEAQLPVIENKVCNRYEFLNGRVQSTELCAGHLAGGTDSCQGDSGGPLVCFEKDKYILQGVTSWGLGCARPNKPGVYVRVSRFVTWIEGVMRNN
T7 sequence (P00747 97-580 partner limits assumed, species assumed): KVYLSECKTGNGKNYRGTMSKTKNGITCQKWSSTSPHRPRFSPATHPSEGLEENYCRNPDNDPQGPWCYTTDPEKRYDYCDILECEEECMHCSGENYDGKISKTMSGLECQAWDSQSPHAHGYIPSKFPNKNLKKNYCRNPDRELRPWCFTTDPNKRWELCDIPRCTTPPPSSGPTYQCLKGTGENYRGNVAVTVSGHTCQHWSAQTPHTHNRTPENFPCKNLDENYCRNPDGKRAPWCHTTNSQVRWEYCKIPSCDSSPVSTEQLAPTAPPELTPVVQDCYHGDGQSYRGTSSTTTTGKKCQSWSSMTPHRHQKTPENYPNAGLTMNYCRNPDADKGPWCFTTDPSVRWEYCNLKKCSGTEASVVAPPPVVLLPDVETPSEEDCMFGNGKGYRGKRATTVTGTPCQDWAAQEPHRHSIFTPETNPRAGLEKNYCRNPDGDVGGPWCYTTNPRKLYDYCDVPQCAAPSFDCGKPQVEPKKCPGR

chymotrypsin = target: T8, chymotrypsin (Bos taurus, UniProt P00766); test: as above; type: biochemical; details: 0.2 mM substrate, PSA assay buffer pH 7.8
T8 construct: purchased Sigma Chemical Co

thrombin = target: T9, thrombin (Homo sapiens, UniProt P00734); test: as above; type: biochemical; details: 0.2 mM substrate, PSA assay buffer pH 7.8
T9 construct: purchased Sigma Chemical Co

human kallikrein, hK1 = test: as above; type: biochemical; details: 0.2 mM substrate, PSA assay buffer pH 7.8
Elastase = test: as above; type: biochemical; details: 0.2 mM substrate, PSA assay buffer pH 7.8
[8] = target: T10, PSA (prostate specific antigen) (Homo sapiens, UniProt P07288); test: Cleavage of AMC-labelled peptide substrates by purified PSA (fluorescence of released AMC; Lineweaver-Burke kinetics); type: biochemical
T10 construct: PSA was purified from human seminal plasma; from tissue; host or cells: human seminal plasma
T10 sequence (P07288 25-261): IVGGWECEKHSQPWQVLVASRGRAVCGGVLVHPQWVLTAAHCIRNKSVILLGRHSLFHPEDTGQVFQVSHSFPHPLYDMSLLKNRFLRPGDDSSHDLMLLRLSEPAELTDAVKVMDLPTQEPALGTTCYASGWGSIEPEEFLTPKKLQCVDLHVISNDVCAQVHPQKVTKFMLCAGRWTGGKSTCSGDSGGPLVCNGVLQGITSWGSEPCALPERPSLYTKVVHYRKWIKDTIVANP

TSU-Pr1 cells = test: Clonogenic survival of TSU-Pr1 cells after 48 hr exposure to doxorubicin prodrugs with or without exogenously added PSA; type: cell-based, human; details: 50 μM prodrug
Experimental: The androgen responsive PSA-producing LNCaP and androgen independent PSA non-producing TSU-Pr1 are human prostate cancer lines were obtained from ATCC (Rockville, Md.) and maintained by serial passage in RPMI 1640 media containing 10% fetal calf serum with 100 units/ml penicillin G, and 100 units/ml streptomycin sulfate (antibiotics from M.A. Bioproducts, Walkerville, Md.) as standard media in 5% CO2/95% air at 37° C. The origins and characteristics of the LNCaP and TSU-Pr1 cell lines are described in Horoszewicz, et al., Cancer Res., 43:1809-1818, (1980)and Iizumi, et al., J. Urol, 137: 1304-1306, (1987).
Percentage clonogenic survival of TSU-Pr1 (2×10^5 cells) following 48 hr. exposure to varying concentrations of doxorubicin prodrugs with or without exogenously added PSA was performed as described in Martikainen et al., Cancer Res., 51:4693-4700, (1991).
Results for Mu-His-Ser-Ser-Lys-Leu-Gln-doxorubicin (SEQ ID NO:16) at 50 μM, were 122 colonies for treatment without PSA, and 110 colonies for treatment with 30 μg/ml enzymatically active PSA. Results are shown as averages (n=5) with standard error of 2 to 7. Assays were done in triplicate.

[9] = PSA substrate, PSA assay buffer pH 7.8, Lineweaver-Burke

C/C=C(/C)C(=O)O[C@H]1C(C)=C2[C@H]([C@@H]1OC(=O)CCCCCCC)[C@@](C)(OC(C)=O)C[C@H](OC(=O)CCC)[C@@]1(O)[C@H]2OC(=O)[C@@]1(C)O [TG, Thapsigargin]
solubility in water [1]: poorly soluble in water
IC50 [2]: 5 ± 0.3 nM
CC50 [3]: 30 ± 4 nM
LD50 (cytotoxic activity) [4]: < 0.1 µM
Kd [5]: ≤ 0.0022 nM

Cc1cc(=O)oc2cc(NC(=O)[C@H](CCC(N)=O)NC(=O)[C@H](CC(C)C)NC(=O)[C@H](CCCCN)NC(=O)[C@H](CO)NC(=O)[C@H](CO)NC(=O)[C@H](Cc3c[nH]cn3)NC(=O)[C@H](CCC(=O)O)NC(=O)N3CCOCC3)ccc12 [EHSSKLQ, Glu-His-Ser-Ser-Lys-Leu-Gln] ({Morpholide-CO}-EHSSKLQ-{AMC})
picomoles of peptide cleaved/min/200 picomoles protease: Cath C (Cathepsin C): UD (at most, 0.1 pmole of substrate cleavage per minute per 200 pmole protease took place)
picomoles of peptide cleaved/min/200 picomoles protease: Cath B (Cathepsin B): 4.3 picomoles/min/200 picomoles pr
picomoles of peptide cleaved/min/200 picomoles protease: Cath D (Cathepsin D): 2.2 picomoles/min/200 picomoles pr
picomoles of peptide cleaved/min/200 picomoles protease: Esterase (porcine liver esterase): UD (at most, 0.1 pmole of substrate cleavage per minute per 200 pmole protease took place)
picomles AMC released/minute: Calf [6]: UD (not more than 0.01 picomole of substrate per minute was cleaved)
picomles AMC released/minute: Fetal Calf [6]: UD (not more than 0.01 picomole of substrate per minute was cleaved)
picomles AMC released/minute: Goat [6]: UD (not more than 0.01 picomole of substrate per minute was cleaved)
picomles AMC released/minute: Mouse [6]: 2.17 picomoles/minute
picomles AMC released/minute: Rat [6]: 0.06 picomoles/minute
picomles AMC released/minute: Human ([6]; human serum 100%): UD (not more than 0.01 picomole of substrate per minute was cleaved)
Picomoles of substrate cleaved/minute/200 pmoles of indicated protease: Urokin (urokinase): UD (at most, 0.1 pmole of substrate cleavage per minute per 200 pmole protease took place)
Picomoles of substrate cleaved/minute/200 pmoles of indicated protease: TPA [7]: UD (at most, 0.1 pmole of substrate cleavage per minute per 200 pmole protease took place)
Picomoles of substrate cleaved/minute/200 pmoles of indicated protease: Trypsin (Trypsin): UD (at most, 0.1 pmole of substrate cleavage per minute per 200 pmole protease took place)
Picomoles of substrate cleaved/minute/200 pmoles of indicated protease: Plasmin (Plasmin): UD (at most, 0.1 pmole of substrate cleavage per minute per 200 pmole protease took place)
Picomoles of substrate cleaved/minute/200 pmoles of indicated protease: Chymo (chymotrypsin): UD (at most, 0.1 pmole of substrate cleavage per minute per 200 pmole protease took place)
Picomoles of substrate cleaved/minute/200 pmoles of indicated protease: Thromb (thrombin): UD (at most, 0.1 pmole of substrate cleavage per minute per 200 pmole protease took place)
Picomoles of substrate cleaved/minute/200 pmoles of indicated protease: Kallik (human kallikrein, hK1): UD (at most, 0.1 pmole of substrate cleavage per minute per 200 pmole protease took place)
Picomoles of substrate cleaved/minute/200 pmoles of indicated protease: Elastase (Elastase): UD (at most, 0.1 pmole of substrate cleavage per minute per 200 pmole protease took place)
Picomoles of substrate cleaved/minute/200 pmoles of indicated protease: PSA ([8]; 0.2 mM substrate, PSA assay buffer pH 7.8, room temperature): 31.6 picomoles/minute/200 pmoles pr
picomoles of peptide cleaved/min/200 picomoles protease: PSA ([8]; 0.2 mM substrate, pH 7.8, SKLQ, KLQ, LQ in 1.4% acetonitrile/buffer, Q-AMC in 0.2% formic acid/buffer): 31.6 picomoles/min/200 picomoles pr
Kcat [8, 9]: 0.02 s⁻¹
Km [8, 9]: 1160 µM

C/C=C(/C)C(=O)O[C@H]1C(C)=C2[C@H]([C@@H]1OC(=O)CCCCCCC)[C@@](C)(OC(C)=O)C[C@H](O)[C@@]1(O)[C@H]2OC(=O)[C@@]1(C)O [dBTG, 8-O-debutanoylthapsigargin, reference compound]
IC50 [2]: 149 ± 21 nM
CC50 [3]: > 10000 nM
LD50 (cytotoxic activity) [4]: > 50 µM

Mu-His-Ser-Ser-Lys-Leu-Gln-doxorubicin (Mu-HSSKLQ-Dox; listed as Homo sapiens) [doxorubicin prodrug without Leu linker; b202 describes it as acetyl-capped]
number of TSU-Pr1 colonies, treatment with 30 μg/ml enzymatically active PSA (TSU-Pr1 cells; with 30 μg/ml PSA): 110 colonies
number of TSU-Pr1 colonies, treatment without PSA (TSU-Pr1 cells; without PSA): 122 colonies
